Experiments:
SW620 cells (KRAS G12V) = assay: Cell viability assay (Cell Counting Kit-8), KRAS G12V; type: cell-based; settings: Homo sapiens, SW-620, SW620, 72 hrs
Description: (§1) The purpose of this cellular assay was to determine the effects of test compounds on the proliferation of human cancer cell lines NCI-H358 (ATCC-CRL5807) cells, AGS (ATCC-CRL-1739) cells, SW620 (ATCC-CCL-227) over a 3-day treatment period by quantifying the amount of NADPH present at endpoint using Cell Counting Kit-8.
(§2) Cells were seeded at 5,000 cells/well (NCI-H358), 2,000 cells/well (AGS)2,000 cells/well (SW620) in 96-well assay plates (Corning-3699) and incubated overnight. On the day of the assay, diluted compounds were then added in a final concentration of 0.5% DMSO. After 72 hrs incubation, a tenth of the volume of cell counting kit 8 (Dnjindo-CK04) was added into each well. Read the signal (OD450 minus OD650) using EnVision after 2 hrs incubation. IC50 was determined by fitting a 4-parameter sigmoidal concentration response model.

KRAS G12D-BRAF complex = KRAS G12D-BRAF complex (Homo sapiens (Human), UniProt P01116+P62937, G12D); assay: KRAS-BRAF with CYPA (500 nM) interaction assay (TR-FRET), G12D; type: biochemical
Description: (§3) Kras-BRAF with CYPA (500 nM) Interaction Assay In this example, TR-FRET was also used to measure the compound or compound-CYPA dependent disruption of the KRAS G12C-BRAF complex. This protocol was also used to measure disruption of KRAS G12D or KRAS G12V binding to BRAF by a compound of the invention, respectively. […] Compound was present in plate wells as a 16-point 3-fold dilution series starting at a final concentration of 10 μM and incubated for 3 hours. […] TR-FRET signal was read on a […] microplate reader (Ex320 nm, Em 665/615 nm). Compounds that facilitate disruption of the KRAS-BRAF complex were identified as those eliciting a decrease in the TR-FRET ratio relative to DMSO control wells.

KRAS G12V-BRAF complex = KRAS G12V-BRAF complex (Homo sapiens (Human), UniProt P01116+P62937, G12V); assay: KRAS-BRAF with CYPA (500 nM) interaction assay (TR-FRET), G12V; type: biochemical
Description: as §3

[1] = system: NCI-H358 cells (KRAS G12C); assay: Cell viability assay (Cell Counting Kit-8), KRAS G12C; type: cell-based; settings: Homo sapiens, NCI-H358, 72 hrs
Description: as §1, §2

KRAS G12C-BRAF complex = KRAS G12C-BRAF complex (Homo sapiens (Human), UniProt P01116+P62937, G12C); assay: KRAS-BRAF with CYPA (500 nM) interaction assay (TR-FRET), G12C; type: biochemical
Description: as §3

[2] = system: phosphorylation of ERK, KRAS G12C in NCI-H358 cells; assay: pERK inhibition assay, KRAS G12C in NCI-H358 cells; type: cell-based, human; settings: Homo sapiens, NCI-H358, 4 hours
Description: (§4) This assay is to measure the ability of test compounds in inhibiting the phosphorylation of ERK, the downstream signaling of KRAS G12C in NCI-H358 cells, KRAS G12D in AGS cells, and KRAS G12V in SW620. NCI-H358 (ATCC-CRL5807) cells, AGS (ATCC-CRL-1739) cells, SW620 (ATCC-CCL-227) cells were all grown and maintained using RPMI-1640 medium (Thermo Fisher Scientific) with 10% fetal bovine serum and 1% penicillin/streptomycin. On the day prior to compound addition, cells were plated in tissue culture-treated 96 well plates (Corning-3699) at a density of 30,000 cell/well, 20,000 cell/well, 30,000 cell/well for NCI-H358, AGS and SW620 respectively, and allowed for attachment overnight. Diluted compounds were then added in a final concentration of 0.5% DMSO. After 4 hours of incubation, the medium was removed, 100 μL of 4% formaldehyde was added, and the assay plates were incubated at room temperature for 20 minutes. The plates were then washed once with phosphate buffered saline (PBS), and permeabilized with 100 μL of chilled methanol for 10 minutes. Non-specific antibody binding to the plates was blocked using 50 μL 1X BSA blocking buffer (Thermo-37520, 10-fold dilution by Phosphate-Buffered Saline Tween (PBST) for at least 1 hour at room temperature.
(§5) The amount of phosphor-ERK was determined using an antibody specific for phosphorylated form of ERK. Primary antibody (PERK, CST-4370, Cell Signaling Technology) was diluted 1:300 in blocking buffer, with 50 μL aliquoted to each well, and incubated overnight at 4° C. Cells was washed five times for 5 minutes with PBST. Secondary antibody (HRP-linked anti-rabbit IgG, CST-7074, Cell Signaling Technology) was diluted 1:1000 in blocking buffer, and 50 μL was added to each well and incubated 1-2 hrs at room temperature. Cells was washed […] for 5 minutes with PBST, 100 μL TMB ELISA substrate (abcam-ab171523) were added and gently shake for 20 minutes. 50 μL stop solution (abcam-ab171529) were added, and then read the signal (OD450) by EnVision.
(§6) IC50 was determined by fitting a 4-parameter sigmoidal concentration response model.

[3] = system: phosphorylation of ERK, KRAS G12V in SW620 cells; assay: pERK inhibition assay, KRAS G12V in SW620; type: cell-based, human; settings: Homo sapiens, SW-620, SW620, 4 hours
Description: as §4, §5, §6

[4] = system: phosphorylation of ERK, KRAS G12D in AGS cells; assay: pERK inhibition assay, KRAS G12D in AGS cells; type: cell-based, human; settings: Homo sapiens, 4 hours
Description: as §4, §5, §6

AGS cells (KRAS G12D) = assay: Cell viability assay (Cell Counting Kit-8), KRAS G12D; type: cell-based; settings: Homo sapiens, 72 hrs
Description: as §1, §2

Sequence of KRAS G12V-BRAF complex (P01116-2 other isoform, or with tags, fused parts or gaps G12V): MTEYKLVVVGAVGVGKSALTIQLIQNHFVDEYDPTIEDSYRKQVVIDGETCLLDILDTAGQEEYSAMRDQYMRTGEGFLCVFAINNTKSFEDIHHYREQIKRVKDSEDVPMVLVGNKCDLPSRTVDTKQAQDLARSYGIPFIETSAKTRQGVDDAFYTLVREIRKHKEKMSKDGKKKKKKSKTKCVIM
Sequence of KRAS G12V-BRAF complex (P62937 whole entry): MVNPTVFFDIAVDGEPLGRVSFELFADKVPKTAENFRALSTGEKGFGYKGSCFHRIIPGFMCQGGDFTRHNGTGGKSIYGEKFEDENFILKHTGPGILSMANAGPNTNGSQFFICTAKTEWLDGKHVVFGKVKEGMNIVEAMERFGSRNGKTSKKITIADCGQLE
Sequence of KRAS G12D-BRAF complex (P01116-2 other isoform, or with tags, fused parts or gaps G12D): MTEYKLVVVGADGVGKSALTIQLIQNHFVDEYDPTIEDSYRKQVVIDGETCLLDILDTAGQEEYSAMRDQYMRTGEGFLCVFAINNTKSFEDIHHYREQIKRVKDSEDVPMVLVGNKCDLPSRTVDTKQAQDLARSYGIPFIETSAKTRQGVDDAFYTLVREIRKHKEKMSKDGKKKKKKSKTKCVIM
Sequence of KRAS G12D-BRAF complex (P62937 whole entry): as the sequence (P62937 whole entry) above
Sequence of KRAS G12C-BRAF complex (P01116-2 other isoform, or with tags, fused parts or gaps G12C): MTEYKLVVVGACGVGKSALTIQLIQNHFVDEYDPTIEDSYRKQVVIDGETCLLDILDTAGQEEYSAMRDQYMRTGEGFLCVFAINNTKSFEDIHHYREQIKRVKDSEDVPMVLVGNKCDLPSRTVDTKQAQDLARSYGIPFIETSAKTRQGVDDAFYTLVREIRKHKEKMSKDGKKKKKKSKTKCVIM
Sequence of KRAS G12C-BRAF complex (P62937 whole entry): as the sequence (P62937 whole entry) above

Row | Structure (SMILES) | IC50 (SW620 cells (KRAS G12V)) [nM] | IC50 (KRAS G12D-BRAF complex) [nM] | IC50 (KRAS G12V-BRAF complex) [nM] | IC50 [1] [nM] | IC50 (KRAS G12C-BRAF complex) [nM] | IC50 [2] [nM] | IC50 [3] [nM] | IC50 [4] [nM] | IC50 (AGS cells (KRAS G12D)) [nM]
1 | CCn1c(-c2cc(N3CCOCC3)cnc2[C@H](C)OC)c2c3cc(c(F)cc31)-c1csc(n1)C[C@H](NC(=O)[C@H](C(C)C)N(C)C(=O)NCC(F)(F)F)C(=O)N1CCC[C@H](N1)C(=O)OCC(C)(C)C2 (atropisomer, axis not shown; (M)) [Example 13, (2S)-N-[(7S,13S)-21-ethyl-24-fluoro-(20M)-20-[2-[(1S)-1-methoxyethyl]-5-morpholino-3-pyridyl]-17,17-dimethyl-8,14-dioxo-15-oxa-4-thia-9,21,27,28-tetrazapentacyclo[17.5.2.1^2,5.1^9,13.0^22,26]octacosa-1 (25),2,5 (28),19,22 (26),23-hexaen-7-yl]-3-methyl-2-[methyl(2,2,2-trifluoroethylcarbamoyl)amino]butanamide] | 29 | > 10000 | > 10000 | 26 | > 10000 | 19 | 8 | 46 | 447
2 | CO[C@@H](C)c1ncc(N2CCN(C)CC2)cc1-c1c2c3cc(c(F)cc3n1CC(F)(F)F)-c1csc(n1)C[C@H](NC(=O)[C@H](C(C)C)N(C)C(=O)N1CC(N(C)C)C1)C(=O)N1CCC[C@H](N1)C(=O)OCC(C)(C)C2 (atropisomer, axis not shown; (M)) [Example 1, 3-(dimethylamino)-N-[(1S)-1-[[(7S,13S)-24-fluoro-(20M)-20-[2-[(1S)-1-methoxyethyl]-5-(4-methylpiperazin-1-yl)-3-pyridyl]-17,17-dimethyl-8,14-dioxo-21-(2,2,2-trifluoroethyl)-15-oxa-4-thia-9,21,27,28-tetrazapentacyclo[17.5.2.1^2,5.1^9,13.0^22,26]octacosa-1(25),2,5 (28),19,22 (26),23-hexaen-7-yl]carbamoyl]-2-methyl-propyl]-N-methyl-azetidine-1-carboxamide] | 1 | 147 | 70 | 2 | 46 | 1 | 1 | 2 | 13
3 | CCn1c(-c2cc(N3CCOCC3)cnc2[C@H](C)OC)c2c3cc(c(F)cc31)-c1csc(n1)C[C@H](NC(=O)[C@H](C(C)C)N(C)C(=O)N1CC(C(F)(F)F)C1)C(=O)N1CCC[C@H](N1)C(=O)OCC(C)(C)C2 (atropisomer, axis not shown; (M)) [Example 14, N-[(1S)-1-[[(7S,13S)-21-ethyl-24-fluoro-(20M)-20-[2-[(1S)-1-methoxyethyl]-5-morpholino-3-pyridyl]-17,17-dimethyl-8,14-dioxo-15-oxa-4-thia-9,21,27,28-tetrazapentacyclo[17.5.2.1^2,5.1^9,13.0^22,26]octacosa-1 (25),2,5 (28),19,22 (26),23-hexaen-7-yl]carbamoyl]-2-methyl-propyl]-N-methyl-3-(trifluoromethyl) azetidine-1-carboxamide] | 73 | > 10000 | > 10000 | 100 | > 10000 | 28 | 12 | 32 | > 10000
4 | CO[C@@H](C)c1ncc(N2CCN(CC(F)(F)F)CC2)cc1-c1c2c3c(F)c(ccc3n1CC(F)(F)F)-c1csc(n1)C[C@H](NC(=O)[C@H](C(C)C)N(C)C(=O)N1CCOCC1)C(=O)N1CCC[C@H](N1)C(=O)OCC(C)(C)C2 (atropisomer, axis not shown; (M)) [Example 17, N-[(1S)-1-[[(7S,13S)-25-fluoro-(20M)-20-[2-[(1S)-1-methoxyethyl]-5-[4-(2,2,2-trifluoroethyl)piperazin-1-yl]-3-pyridyl]-17,17-dimethyl-8,14-dioxo-21-(2,2,2-trifluoroethyl)-15-oxa-4-thia-9,21,27,28-tetrazapentacyclo[17.5.2.1^2,5.1^9,13.0^22,26]octacosa-1 (25),2,5 (28),19,22 (26),23-hexaen-7-yl]carbamoyl]-2-methyl-propyl]-N-methyl-morpholine-4-carboxamide] | 6 | 7 | 4 | 4 | 2 | 8 | 4 | 4 | 46
5 | CCn1c(-c2cc(N3CCN(CC(F)(F)F)CC3)cnc2[C@H](C)OC)c2c3cc(c(F)cc31)-c1csc(n1)C[C@H](NC(=O)[C@H](C(C)C)N(C)C(=O)N1CCOCC1)C(=O)N1CCC[C@H](N1)C(=O)OCC(C)(C)C2 (atropisomer, axis not shown; (M)) [Example 9, N-[(1S)-1-[[(7S,13S)-21-ethyl-24-fluoro-(20M)-20-[2-[(1S)-1-methoxyethyl]-5-[4-(2,2,2-trifluoroethyl)piperazin-1-yl]-3-pyridyl]-17,17-dimethyl-8,14-dioxo-15-oxa-4-thia-9,21,27,28-tetrazapentacyclo[17.5.2.1^2,5.1^9,13.0^22,26]octacosa-1 (25),2,5 (28),19,22 (26),23-hexaen-7-yl]carbamoyl]-2-methyl-propyl]-N-methyl-morpholine-4-carboxamide] | 14 | 225 | 124 | 24 | 49 | 24 | 9 | 23 | 91
6 | CO[C@@H](C)c1ncc(N2CCOCC2)cc1-c1c2c3cc(c(F)cc3n1CC(F)(F)F)-c1csc(n1)C[C@H](NC(=O)[C@H](C(C)C)N(C)C(=O)N1CCOCC1)C(=O)N1CCC[C@H](N1)C(=O)OCC(C)(C)C2 (atropisomer, axis not shown; (M)) [Example 11, N-[(1S)-1-[[(7S,13S)-24-fluoro-20-(20M)-[2-[(1S)-1-methoxyethyl]-5-morpholino-3-pyridyl]-17,17-dimethyl-8,14-dioxo-21-(2,2,2-trifluoroethyl)-15-oxa-4-thia-9,21,27,28-tetrazapentacyclo[17.5.2.1^2,5.1^9,13.0^22,26]octacosa-1(25),2,5(28),19,22(26),23-hexaen-7-yl]carbamoyl]-2-methyl-propyl]-N-methyl-morpholine-4-carboxamide] | 1 | 112 | 59 | 2 | 24 | 3 | 1 | 1 | 6
